According to US20240270821A1, “GIP/GLP1/GCG TRI-RECEPTOR AGONISTS AND USES THEREOF” (priority 2023, published 2024):
Like-named read-outs stand apart in the source and are kept apart here. Starred links: 1 amine or outer side, 2 acyl side, 3 side chain; linkers in the order of their positions; H or OH if unused. Non-standard residues stand in square brackets, D forms with d. Residues, ends and D or L forms follow the SMILES beside them. Groups on a side chain read outwards from the residue. No end group written: not given here. *: point of attachment. C20 diacid = O=C(O)CCCCCCCCCCCCCCCCCCC(=O)*; C18 diacid = O=C(O)CCCCCCCCCCCCCCCCC(=O)*; αMePhe(2-F) = C[C@](N)(Cc1ccccc1F)C(=O)O; γGlu = O=C(O)[C@H](CCC(=O)[*:2])N[*:1]; αMe4Pal = C[C@](N)(Cc1ccncc1)C(=O)O; αMeY = C[C@](N)(Cc1ccc(O)cc1)C(=O)O; αMeF = C[C@](N)(Cc1ccccc1)C(=O)O; 4Pal = N[C@@H](Cc1ccncc1)C(=O)O; αMeL = CC(C)C[C@](C)(N)C(=O)O; αMeS = C[C@](N)(CO)C(=O)O; Orn = NCCC[C@H](N)C(=O)O; AEEA = NCCOCCOCC(=O)O; Aib = CC(C)(N)C(=O)O

What was measured:
Format in all cases: cell-based
hGLP-1R [1] = molecular target: T1, hGLP-1R (Homo sapiens, UniProt P43220); experiment: Functional cAMP activity in the presence of 1% HSA; conditions: read-out: cAMP Rel EC50, hGLP-1R
hGcgR = hGcgR (Homo sapiens, UniProt P47871); experiment: Functional cAMP activation in the presence of 0.1% casein (no HSA); conditions: read-out: Relative cAMP EC50, hGcgR;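 further: intracellular cAMP rise after 30 min at 37 °C, read by HTRF against a cAMP standard curve, scaled from buffer only (0%) to maximal control ligand response (100%)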
Description: After a 30-minute incubation at 37° C., the resulting increase in intracellular cAMP is quantitatively determined using the CisBio CAMP Dynamic 2 HTRF Assay Kit (62AM4PEJ). Briefly, cAMP levels within the cell are detected by adding the cAMP-d2 conjugate in cell lysis buffer followed by the antibody anti-cAMP-Eu^3+-Cryptate, also in cell lysis buffer.
Intracellular cAMP levels are determined by extrapolation using a standard curve. Dose response curves of compounds are plotted as the percentage of stimulation normalized to minimum (buffer only) and maximum (maximum concentration of each control ligand) values and analyzed using a four parameter non-linear regression fit with a variable slope (Genedata Screener 13). EC50 is the concentration of compound causing half-maximal simulation in a dose response curve. Each relative EC50 value for the Geometric mean calculation is determined from a curve fitting.

human GcgR = human GcgR (Homo sapiens, UniProt P47871); experiment: Functional cAMP activity in the presence of 1% HSA; conditions: read-out: cAMP Rel EC50, hGcgR
hGIPR [2] = molecular target: T2, hGIPR (Homo sapiens, UniProt P48546); experiment: Functional cAMP activity in the presence of 1% HSA; conditions: read-out: cAMP Rel EC50, hGIPR
T2 sequence (P48546 22-466): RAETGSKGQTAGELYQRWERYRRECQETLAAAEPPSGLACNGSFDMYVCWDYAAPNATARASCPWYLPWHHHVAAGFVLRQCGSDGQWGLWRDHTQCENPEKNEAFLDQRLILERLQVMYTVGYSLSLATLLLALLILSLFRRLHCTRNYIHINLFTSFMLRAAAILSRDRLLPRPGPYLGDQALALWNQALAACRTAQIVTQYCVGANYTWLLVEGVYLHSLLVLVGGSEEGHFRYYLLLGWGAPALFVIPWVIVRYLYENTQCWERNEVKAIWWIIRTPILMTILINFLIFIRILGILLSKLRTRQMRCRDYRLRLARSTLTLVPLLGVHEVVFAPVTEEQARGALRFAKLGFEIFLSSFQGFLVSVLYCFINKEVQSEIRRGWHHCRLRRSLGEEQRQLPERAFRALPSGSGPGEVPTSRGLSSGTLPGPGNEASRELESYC

hGLP-1R [3] = molecular target: T1, hGLP-1R; experiment: Functional cAMP activation in the presence of 0.1% casein (no HSA); conditions: read-out: Relative cAMP EC50, hGLP-1R;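 on Relative cAMP EC50, hGIPR: intracellular cAMP rise after 30 min at 37 °C read by HTRF against a standard curve, scaled between buffer alone (0%) and top control ligand concentration (100%), four-parameter fit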;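 on Relative cAMP EC50, hGLP-1R: intracellular cAMP rise after 30 min at 37 °C read by HTRF, normalized between buffer only (0%) and maximal control ligand (100%), four-parameter variable-slope fit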
hGIPR [4] = molecular target: T2, hGIPR; experiment: as above; conditions: read-out: Relative cAMP EC50, hGIPR
[5] = in the presence of 0.1% casein (no HSA), geometric mean
[6] = HEK-293 clonal cell line, 1% HSA, geometric mean of relative EC50
[7] = in the presence of 0.1% casein (no HSA), geometric mean of relative EC50
[8] = 0.1% casein, no HSA, geometric mean

Sequence of human GcgR (P47871 26-477): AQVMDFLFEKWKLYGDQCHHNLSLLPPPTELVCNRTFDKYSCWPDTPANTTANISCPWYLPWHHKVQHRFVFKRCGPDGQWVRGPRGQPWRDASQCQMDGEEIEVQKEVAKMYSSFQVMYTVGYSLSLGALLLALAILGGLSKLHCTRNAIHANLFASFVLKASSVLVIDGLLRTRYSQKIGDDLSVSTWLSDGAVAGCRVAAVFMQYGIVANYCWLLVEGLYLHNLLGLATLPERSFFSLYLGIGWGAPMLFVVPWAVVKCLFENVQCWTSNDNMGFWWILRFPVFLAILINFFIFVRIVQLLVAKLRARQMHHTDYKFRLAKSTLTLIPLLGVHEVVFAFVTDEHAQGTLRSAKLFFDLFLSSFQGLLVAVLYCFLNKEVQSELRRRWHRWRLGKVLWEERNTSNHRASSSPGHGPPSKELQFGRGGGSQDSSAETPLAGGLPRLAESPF
Sequence of hGcgR (P47871 26-477): as above
T1 sequence (P43220 24-463): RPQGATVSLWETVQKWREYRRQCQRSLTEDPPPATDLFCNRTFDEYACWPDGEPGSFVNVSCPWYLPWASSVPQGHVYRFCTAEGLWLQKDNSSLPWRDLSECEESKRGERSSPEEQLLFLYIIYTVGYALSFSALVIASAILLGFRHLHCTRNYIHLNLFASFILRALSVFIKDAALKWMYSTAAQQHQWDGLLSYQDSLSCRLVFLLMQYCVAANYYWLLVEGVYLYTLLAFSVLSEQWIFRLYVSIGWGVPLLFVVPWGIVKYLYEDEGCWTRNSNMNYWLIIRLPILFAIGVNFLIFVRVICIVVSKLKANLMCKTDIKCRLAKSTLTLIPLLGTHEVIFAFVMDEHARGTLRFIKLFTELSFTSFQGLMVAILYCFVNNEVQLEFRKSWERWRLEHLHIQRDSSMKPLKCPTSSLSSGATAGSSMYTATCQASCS

Compound | EC50 (hGLP-1R [1]) | EC50 (hGcgR) | EC50 (human GcgR) | EC50 (hGIPR [2]) | EC50 (hGLP-1R [3]) | EC50 (hGIPR [4]) | EC50 (hGcgR; [5]) | EC50 (hGLP-1R [3]; [5]) | EC50 (hGIPR [4]; [5]) | also measured
CC[C@H](C)[C@H](NC(=O)[C@H](Cc1ccccc1)NC(=O)[C@H](C)NC(=O)C(C)(C)NC(=O)[C@H](CCC(N)=O)NC(=O)[C@H](C)NC(=O)[C@H](CCCCNC(=O)COCCOCCNC(=O)CC[C@H](NC(=O)CCCCCCCCCCCCCCCCC(=O)O)C(=O)O)NC(=O)[C@H](CCCN)NC(=O)[C@H](CC(=O)O)NC(=O)[C@H](CC(C)C)NC(=O)[C@](C)(CC(C)C)NC(=O)[C@@H](NC(=O)[C@](C)(CO)NC(=O)[C@H](Cc1ccc(O)cc1)NC(=O)[C@H](CC(=O)O)NC(=O)[C@H](CO)NC(=O)[C@@H](NC(=O)[C@](C)(Cc1ccccc1)NC(=O)[C@@H](NC(=O)CNC(=O)[C@H](CCC(N)=O)NC(=O)C(C)(C)NC(=O)[C@@H](N)Cc1ccc(O)cc1)[C@@H](C)O)[C@@H](C)O)[C@@H](C)CC)C(=O)N[C@H](CCC(=O)O)C(=O)N[C@@H](Cc1ccc(O)cc1)C(=O)N[C@@H](CC(C)C)C(=O)N[C@@H](CC(C)C)C(=O)N[C@@H](CCC(=O)O)C(=O)NCC(=O)NCC(=O)N1CCC[C@H]1C(=O)N[C@@H](CO)C(=O)N[C@@H](CO)C(=O)NCC(=O)N[C@@H](CCC(=O)O)C(=O)N1CCC[C@H]1C(=O)N1CCC[C@H]1C(=O)N1CCC[C@H]1C(=O)N[C@@H](CCC(=O)O)C(N)=O [Example 420] (H-Y[Aib]QGT[αMeF]TSDY[αMeS]I[αMeL]LD[Orn]K([AEEA-γGlu-C18 diacid])AQ[Aib]AFI[dE]YLLEGGPSSGEPPPE-NH2) | 31.3 nM | 2.49 nM | 433 nM | 2.61 nM | 0.205 nM | 0.0131 nM | – | – | – | –
H-Y[Aib]QGT[αMePhe(2-F)]TSD[4Pal][αMeS]I[αMeL]LD[Orn]K([γGlu-γGlu-C18 diacid])AQ[Aib][Orn]FI[dE][αMeY]LSEGGPSSGEPPPSGTE-NH2 [Example 517] | 50 nM | 4.69 nM | 337 nM | 9.12 nM | 0.646 nM | 0.158 nM | – | – | – | –
H-Y[Aib]QGTFTSDYSK[αMeL]LDKK([AEEA-γGlu-C20 diacid])AQQAFIEYLIAGGPSSGEPPPSGD-NH2 [Example 337] | 272 nM | – | 2950 nM | 99.1 nM | – | – | 5.95 nM | 0.686 nM | 0.332 nM | –
Y[Aib]QGT[αMePhe(2-F)]TSD[4Pal][αMeS]I[αMeL]LD[Orn]K([AEEA-γGlu-C18 diacid])YQ[αMe4Pal]EFI[dE][αMeY]LVEGGPSSGAPPPSGS-NH2 [Example 767] | 56.8 nM | 1.13 nM | 207 nM | 1.51 nM | 0.299 nM | 0.00792 nM | – | – | – | –
CC[C@H](C)[C@H](NC(=O)[C@H](CC(C)C)NC(=O)[C@](C)(Cc1ccc(O)cc1)NC(=O)[C@@H](CCC(=O)O)NC(=O)[C@@H](NC(=O)[C@H](Cc1ccccc1)NC(=O)[C@H](CC(N)=O)NC(=O)C(C)(C)NC(=O)[C@H](CCC(N)=O)NC(=O)[C@H](C)NC(=O)[C@H](CCCCNC(=O)COCCOCCNC(=O)CC[C@H](NC(=O)CCCCCCCCCCCCCCCCC(=O)O)C(=O)O)NC(=O)[C@H](CCCN)NC(=O)[C@H](CC(=O)O)NC(=O)[C@H](CC(C)C)NC(=O)[C@](C)(CC(C)C)NC(=O)[C@@H](NC(=O)[C@](C)(CO)NC(=O)[C@H](Cc1ccncc1)NC(=O)[C@H](CC(=O)O)NC(=O)[C@H](CO)NC(=O)[C@@H](NC(=O)[C@](C)(Cc1ccccc1F)NC(=O)[C@@H](NC(=O)CNC(=O)[C@H](CCC(N)=O)NC(=O)C(C)(C)NC(=O)[C@@H](N)Cc1ccc(O)cc1)[C@@H](C)O)[C@@H](C)O)[C@@H](C)CC)[C@@H](C)CC)C(=O)N[C@@H](CCC(=O)O)C(=O)NCC(=O)NCC(=O)N1CCC[C@H]1C(=O)N[C@@H](CO)C(=O)N[C@@H](CO)C(=O)NCC(=O)N[C@@H](CCC(=O)O)C(=O)N1CCC[C@H]1C(=O)N1CCC[C@H]1C(=O)N1CCC[C@H]1C(=O)N[C@@H](CCC(=O)O)C(N)=O [Example 456] (H-Y[Aib]QGT[αMePhe(2-F)]TSD[4Pal][αMeS]I[αMeL]LD[Orn]K([AEEA-γGlu-C18 diacid])AQ[Aib]NFI[dE][αMeY]LIEGGPSSGEPPPE-NH2) | 12.5 nM | 3.48 nM | 230 nM | 0.993 nM | 0.19 nM | 0.00913 nM | – | – | – | –
CC[C@H](C)[C@H](NC(=O)[C@H](CC(C)C)NC(=O)[C@](C)(Cc1ccc(O)cc1)NC(=O)[C@@H](CCC(=O)O)NC(=O)[C@@H](NC(=O)[C@H](Cc1ccccc1)NC(=O)[C@H](CCC(=O)O)NC(=O)C(C)(C)NC(=O)[C@H](C)NC(=O)[C@H](C)NC(=O)[C@H](CCCCNC(=O)COCCOCCNC(=O)CC[C@H](NC(=O)CCCCCCCCCCCCCCCCC(=O)O)C(=O)O)NC(=O)[C@H](CCCN)NC(=O)[C@H](CC(=O)O)NC(=O)[C@H](CC(C)C)NC(=O)[C@](C)(CC(C)C)NC(=O)[C@@H](NC(=O)[C@](C)(CO)NC(=O)[C@H](Cc1ccncc1)NC(=O)[C@H](CC(=O)O)NC(=O)[C@H](CO)NC(=O)[C@@H](NC(=O)[C@](C)(Cc1ccccc1F)NC(=O)[C@@H](NC(=O)CNC(=O)[C@H](CCC(N)=O)NC(=O)C(C)(C)NC(=O)[C@@H](N)Cc1ccc(O)cc1)[C@@H](C)O)[C@@H](C)O)[C@@H](C)CC)[C@@H](C)CC)C(=O)N[C@@H](CCC(=O)O)C(=O)NCC(=O)NCC(=O)N1CCC[C@H]1C(=O)N[C@@H](CO)C(=O)N[C@@H](CO)C(=O)NCC(=O)N[C@@H](CCC(=O)O)C(=O)N1CCC[C@H]1C(=O)N1CCC[C@H]1C(=O)N1CCC[C@H]1C(=O)N[C@@H](CO)C(=O)NCC(=O)N[C@@H](CO)C(=O)N[C@H](CCC(=O)O)C(N)=O [Example 720] | – | – | – | – | – | – | – | – | – | EC50 (hGLP-1R [1]; [6]): 28.3 nM; EC50 (hGcgR; [7]): 1.78 nM; EC50 (human GcgR; [6]): 239 nM; EC50 (hGIPR [2]; [6]): 1.02 nM; EC50 (hGLP-1R [3]; [7]): 0.245 nM; EC50 (hGIPR [4]; [7]): 0.0103 nM
H-Y[Aib]QGTFTSDFS[Orn][αMeL]LDKK([γGlu-AEEA-γGlu-C18 diacid])AQ[Aib]AFIEYLLE[Aib]GESSGAPPPSGS-NH2 [Example 244] | 645 nM | – | 1230 nM | 18.8 nM | – | – | 4.81 nM | 7.68 nM | 0.0972 nM | –
H-Y[Aib]QGT[αMePhe(2-F)]TSDYSI[αMeL]LDKK([AEEA-AEEA-γGlu-C20 diacid])AA[Aib]AFIEYLIETGPSSGAPPPSEG-NH2 [Example 383] | – | – | – | – | – | – | 1.27 nM | 0.258 nM | 0.0406 nM | EC50 (hGLP-1R [1]; HEK-293 clonal cells expressing hGLP-1R, in the presence of 1% HSA, geometric mean of relative EC50): 79.1 nM; EC50 (human GcgR; HEK-293 clonal cells expressing hGcgR, in the presence of 1% HSA, geometric mean of relative EC50): 530 nM; EC50 (hGIPR [2]; HEK-293 clonal cells expressing hGIPR, in the presence of 1% HSA, geometric mean of relative EC50): 32.3 nM
H-Y[Aib]Q[dA]T[αMePhe(2-F)]TSD[4Pal][αMeS]I[αMeL]LD[Orn]K([AEEA-γGlu-C18 diacid])AQ[Aib]EFI[dE][αMeY]LIEGGPSSGAPPPSGSE-NH2 [Example 1222] | 44.8 nM | – | 470 nM | 12.4 nM | – | – | – | – | – | EC50 (hGcgR; [8]): 2.55 nM; EC50 (hGLP-1R [3]; [8]): 0.346 nM; EC50 (hGIPR [4]; [8]): 0.0858 nM
H-Y[Aib]QGTFTSDFSK[αMeL]LDKK([AEEA-γGlu-C20 diacid])AQ[Aib]AFIEYLLEGAPSSGAPPPSEG-NH2 [Example 47] | 1270 nM | – | 2140 nM | 154 nM | – | – | 5.61 nM | 3.4 nM | 0.388 nM | –
